Consider six compounds from patent publication US5130307A, “Aminoesters of rapamycin” (American Home Products Corporation, priority 1991, dated 1992).

The subject of experiment [1] is pinch skin graft from male DBA/2 donors transplanted to male BALB/c recipients. Kind of experiment: survival time of pinch skin graft. In kind it is in vivo. The conditions noted are these: for Skin Graft (days + SD), mean graft survival time: intraperitoneally. The procedure: (§1) Immunosuppressive activity was evaluated in an in vitro standard pharmacological test procedure to measure lymphocyte proliferation (LAF) and in two in vivo standard pharmacological test procedures. The first in vivo procedure was a popliteal lymph node (PLN) test procedure which measured the effect of compounds of this invention on a mixed lymphocyte reaction and the second in vivo procedure evaluated the survival time of a pinch skin graft.
The second in vivo test procedure is designed to determine the survival time of pinch skin graft from male DBA/2 donors transplanted to male BALB/c recipients. The method is adapted from Billingham R.E. and Medawar P.B., J. Exp. Biol. 28:385-402, (1951). Briefly, a pinch skin graft from the donor is grafted on the dorsum of the recipient as a homograft, and an autograft is used as control in the same region. […] Untreated recipients serve as rejection control. The graft is monitored daily and observations are recorded until the graft becomes dry and forms a blackened scab. This is considered as the rejection day. The mean graft survival time (number of days ±S.D.) of the drug treatment group is compared with the control group.

The test system of a further experiment is Candida albicans 3669. As to the kind of experiment: antifungal plate test, MIC. In kind it is cell-based. The procedure:
(§2) The following represents the typical procedure used. Compound to be tested was placed on sterile dried 1/4" plate disks, and allowed to dry. Agar plates were seeded with fungi and allowed to solidify. The impregnated disks were placed on the seeded Agar surface and incubated for the time required for the particular culture. Results are expressed in MIC (μg/ml) to inhibit growth.

Experiment [2] deals with Candida albicans ATCC 10231. Kind of experiment: antifungal plate test, MIC. It is filed as cell-based. To be noted: ATCC10231. The procedure: as §2
Experiment [3] concerns Candida albicans ATCC 38246. As to the kind of experiment: antifungal plate test, MIC. It is filed as cell-based. To be noted: ATCC38246. How it is done: as §2
In experiment [4] the test system is Candida albicans ATCC 38247. Kind of experiment: antifungal plate test, MIC. In kind it is cell-based. The conditions noted are these: ATCC38247. How it is done:
as §2

The test system of experiment [5] is Candida albicans ATCC 38248. Kind of experiment: antifungal plate test, MIC. It is filed as cell-based. To be noted: ATCC38248. The procedure: as §2
In the next experiment the test system is popliteal lymph node. Kind of experiment: popliteal lymph node (PLN) test procedure, in vivo mixed lymphocyte reaction. On the set-up: species or system C3H mice (BALB/c donors). The procedure:
as §1
A mixed lymphocyte reaction (MLR) occurs when lymphoid cells from genetically distinct animals are combined in tissue culture. Each stimulates the other to undergo blast transformation which results in increased DNA synthesis that can be quantified by the incorporation of tritiated thymidine. Since stimulating a MLR is a function of disparity at Major Histocompatibility antigens, an in vivo popliteal lymph node (PLN) test procedure closely correlates to host vs. graft disease. Briefly, irradiated spleen cells from BALB/c donors are injected into the right hind foot pad of recipient C3H mice. The drug is given daily, p.o. from Day 0 to Day 4. On Day 3 and Day 4, tritiated thymidine is given i.p., b.i.d. On Day 5, the hind popliteal lymph nodes are removed and dissolved, and radioactivity counted. […] Percent suppression is calculated using the non-drug treated animals as allogenic control. […]

The test system of another experiment is transplant rejection. The conditions noted are these: cited from earlier work.
The next experiment relates to Candida albicans. The conditions noted are these: in vitro and in vivo; cited from earlier work.
For experiment [6] the following is noted: alone or in combination with picibanil; cited from earlier work.
Experiment [7] concerns experimental allergic encephalomyelitis. The conditions noted are these: in vivo; cited from earlier work.
A further experiment deals with IgE-like antibodies. The conditions noted are these: cited from earlier work.

As a reminder, the MIC is the least concentration at which growth counts as inhibited. Low readings indicate inhibition by little substance, high ones a need for much substance.

In brackets after ≈: the same amount, converted by molar mass.

As to `CO[C@H]1C[C@@H]2CC[C@@H](C)[C@@](O)(O2)C(=O)C(=O)N2CCCC[C@H]2C(=O)O[C@H]([C@H](C)C[C@@H]2CC[C@@H](OC(=O)CC[C@H](NC(=O)OC(C)(C)C)C(=O)OC(C)(C)C)[C@H](OC)C2)CC(=O)[C@H](C)/C=C(\C)[C@@H](O)[C@@H](OC)C(=O)[C@H](C)C[C@H](C)/C=C/C=C/C=C/1C` [Example 10, Rapamycin-42-ester with 5-(1,1-dimethyloxy)-4-[[(1,1-dimethylethoxy)carbonyl]amino]-5-oxopentanoicacid], in experiment [1], the “Skin Graft (days + SD), mean graft survival time” value (“Skin Graft (days + SD)” below) is listed as 12.7 ± 1.2 days. The MIC with Candida albicans 3669 was 0.4 µg/mL (≈ 0.333 µM); in experiment [2], 0.2 µg/mL (≈ 0.167 µM); in [3], greater than 0.4 µg/mL; in experiment [4], 0.2 µg/mL (≈ 0.167 µM); in experiment [5], 0.4 µg/mL (≈ 0.333 µM).
On to `CO[C@H]1C[C@@H]2CC[C@@H](C)[C@@](O)(O2)C(=O)C(=O)N2CCCC[C@H]2C(=O)O[C@H]([C@H](C)C[C@@H]2CC[C@@H](OC(=O)CC[C@H](NC(=O)OC(C)(C)C)C(=O)OC(C)(C)C)[C@H](OC)C2)CC(=O)[C@H](C)/C=C(\C)[C@@H](OC(=O)CC[C@H](NC(=O)OC(C)(C)C)C(=O)OC(C)(C)C)[C@@H](OC)C(=O)[C@H](C)C[C@H](C)/C=C/C=C/C=C/1C` [Example 11, Rapamycin-31,42-diester with 5-(1,1-dimethylethoxy)-4-[[(1,1-dimethylethoxy)-carbonyl]-amino]-5-oxopentanoic acid], for which the “Skin Graft (days + SD)” value in [1] is on record as 10.5 ± 1.3 days. In addition, the minimum inhibitory concentration (MIC) (in the experiment on Candida albicans 3669; in experiment [2]; in experiment [3]; in experiment [4]; in experiment [5]) was greater than 0.4 µg/mL each time.
With `CO[C@H]1C[C@@H]2CC[C@@H](C)[C@@](O)(O2)C(=O)C(=O)N2CCCC[C@H]2C(=O)O[C@H]([C@H](C)C[C@@H]2CC[C@@H](OC(=O)[C@H](CCCCNC(=O)OC(C)(C)C)NC(=O)OC(C)(C)C)[C@H](OC)C2)CC(=O)[C@H](C)/C=C(\C)[C@@H](O)[C@@H](OC)C(=O)[C@H](C)C[C@H](C)/C=C/C=C/C=C/1C` [Example 12, Rapamycin-42-ester with N^α, N^ε -bis[(1,1-dimethylethoxy)carbonyl]-L-lysine], in the experiment on popliteal lymph node (negative ratio), the “effect on T cell proliferation in PLN (in words)” value is on record as “may cause T cell proliferation in the PLN test procedure”. In addition, the “Skin Graft (days + SD)” value in [1] came to 12.0 ± 2.0 days. In experiment [1] (untreated grafts typically rejected within 6-7 days), the “survival time of the skin graft (in words)” value is given as “increased survival time observed in the skin graft test procedure”. In addition, the MIC in the experiment on Candida albicans 3669 was 0.4 µg/mL (≈ 0.322 µM); in experiment [2] it was 0.2 µg/mL (≈ 0.161 µM); in [3], greater than 0.4 µg/mL; in experiment [4], 0.1 µg/mL (≈ 0.0805 µM); in [5] it was 0.2 µg/mL (≈ 0.161 µM).
Take `CO[C@H]1C[C@@H]2CC[C@@H](C)[C@@](O)(O2)C(=O)C(=O)N2CCCC[C@H]2C(=O)O[C@H]([C@H](C)C[C@@H]2CC[C@@H](OC(=O)[C@H](CCCCNC(=O)OC(C)(C)C)NC(=O)OC(C)(C)C)[C@H](OC)C2)CC(=O)[C@H](C)/C=C(\C)[C@@H](OC(=O)[C@H](CCCCNC(=O)OC(C)(C)C)NC(=O)OC(C)(C)C)[C@@H](OC)C(=O)[C@H](C)C[C@H](C)/C=C/C=C/C=C/1C` [Example 13, Rapamycin-31,42-diester with N^α, N^ε bis [(1,1-dimethylethoxy)carbonyl]-L-lysine]: the “Skin Graft (days + SD)” value in [1] is recorded as 7.0 ± 0.6 days. Moreover, the MIC (against Candida albicans 3669; in [2]; in experiment [3]; in experiment [4]; in [5]) was greater than 0.4 µg/mL in each case.
Turning to `C=CC[C@@H]1/C=C(\C)C[C@H](C)C[C@H](OC)[C@H]2O[C@@](O)(C(=O)C(=O)N3CCCC[C@H]3C(=O)O[C@H](/C(C)=C/[C@@H]3CC[C@@H](O)[C@H](OC)C3)[C@H](C)[C@@H](O)CC1=O)[C@H](C)C[C@@H]2OC` [FK-506], the “inhibition of transplant rejection / immunosuppressive effect (in words)” value with transplant rejection is recorded as “effective as immunosuppressive agents”.
For `CO[C@H]1C[C@@H]2CC[C@@H](C)[C@@](O)(O2)C(=O)C(=O)N2CCCC[C@H]2C(=O)O[C@H]([C@H](C)C[C@@H]2CC[C@@H](O)[C@H](OC)C2)CC(=O)[C@H](C)/C=C(\C)[C@@H](O)[C@@H](OC)C(=O)[C@H](C)C[C@H](C)/C=C/C=C/C=C/1C` [Rapamycin], in the experiment on popliteal lymph node (p.o. daily Day 0 to Day 4, ratio, rapamycin 1.0), the “PLN (ratio)” value is 1.0. Moreover, the “Skin Graft (days + SD)” value in experiment [1] is given as 12.0 ± 1.7 days. In addition, in the experiment with Candida albicans, the “antifungal activity (in words)” value is “antifungal activity, particularly against Candida albicans, both in vitro and in vivo”. Further, in [6], the “antitumor activity (in words)” value was “has been shown to have antitumor activity”. Moreover, in [7], the “effectiveness in experimental allergic encephalomyelitis model (in words)” value is “effective in the experimental allergic encephalomyelitis model”. Also, the “inhibition of the formation of IgE-like antibodies (in words)” value in the experiment on IgE-like antibodies is given as “effectively inhibited the formation of IgE-like antibodies”. Moreover, the “inhibition of transplant rejection / immunosuppressive effect (in words)” value in the experiment with transplant rejection is on record as “effective in inhibiting transplant rejection”.
